Results reported in patent US6518276B2, “7-oxo-pyridopyrimidines (II)” (Syntex (U.S.A.) LLC, priority 2000, dated 2003).
Counter-ions that a name gives are not always drawn.

Key:
[1] = target: T1, p38 MAP kinase (Homo sapiens, UniProt Q16539); assay: in vitro inhibition of p-38 (MAP) kinase: transfer of γ-phosphate from γ-33P-ATP to Myelin Basic Protein; format: biochemical; conditions: phosphorylated recombinant p38 MAP kinase, MBP substrate, 30° C., read-out: IC50 (p-38 inhibitory activity, concentration causing 50% inhibition of the p-38 enzyme)
T1 construct: made in house; host or cells: E. coli (co-expressed with SEK-1 and MEKK to obtain the phosphorylated form)
Protocol: This example illustrate an assay protocol for determining in vitro inhibition of p-38 (MAP) Kinase.
The p-38 MAP kinase inhibitory activity of compounds of this invention in vitro was determined by measuring the transfer of the γ-phosphate from γ-^33P-ATP by p-38 kinase to Myelin Basic Protein (MBP), using the a minor modification of the method described in Ahn, N. G.; et al. J. Biol. Chem. Vol. 266(7), 4220-4227, (1991).
The phosphorylated form of the recombinant p38 MAP kinase was expressed with SEK-1 and MEKK in E. Coli and then purified by affinity chromatography using a Nickel column.
The phosphorylated p38 MAP kinase was diluted in kinase buffer (20 mM 3-(N-morpholino)propanesulfonic acid, pH 7.2, 25 mM β-glycerol phosphate, 5 mM ethylene glycol-bis(beta-aminoethyl ether)-N,N,N′,N′-tetraacetic acid, 1 mM sodium vanadate, 1 mM dithiothreitol, 40 mM magnesium chloride). Test compound dissolved in DMSO or only DMSO (control) was added and the samples were incubated for 10 min at 30° C. The kinase reaction was initiated by the addition of a substrate cocktail containing MBP and γ-^33P-ATP. After incubating for an additional 20 min at 30° C., the reaction was terminated by adding 0.75% phosphoric acid. The phosphorylated MBP was then separated from the residual γ-^33P-ATP using a phosphocellulose membrane (Millipore, Bedford, Mass.) and quantitated using a scintillation counter (Packard, Meriden, Conn.).
Compounds of the invention were active in this assay. The p-38 inhibitory activities (expressed as IC50 , the concentration causing 50% inhibition of the p-38 enzyme being assayed) of some compounds of the invention are: […]

T1 sequence (Q16539 whole entry): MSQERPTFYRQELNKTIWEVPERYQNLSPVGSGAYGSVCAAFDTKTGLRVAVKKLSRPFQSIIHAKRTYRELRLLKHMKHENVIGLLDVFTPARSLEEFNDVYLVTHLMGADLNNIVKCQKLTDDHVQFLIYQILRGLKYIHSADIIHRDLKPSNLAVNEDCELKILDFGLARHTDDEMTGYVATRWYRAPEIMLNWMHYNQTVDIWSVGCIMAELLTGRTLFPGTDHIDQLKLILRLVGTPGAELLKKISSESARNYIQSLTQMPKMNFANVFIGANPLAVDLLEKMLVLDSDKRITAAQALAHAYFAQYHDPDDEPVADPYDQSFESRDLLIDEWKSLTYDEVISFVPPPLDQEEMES

melting point | IC50 [1] | SMILES
206.8 to 207.5 °C | – | C[C@@H](Nc1ncc2cc(-c3ccccc3Cl)c(=O)n(-c3ccc(F)cc3)c2n1)C(C)(C)O [Cpd 6]
194 to 195.3 °C | – | C[C@H](Nc1ncc2cc(-c3ccccc3Cl)c(=O)n(C)c2n1)C(C)(C)O.Cl
211.8 to 212.8 °C | 6.27 µM | CN(C)C(=O)CN1CCC(CNc2ncc3cc(-c4ccccc4Cl)c(=O)[nH]c3n2)CC1.Cl [Cpd 4]
– | 0.0003 µM | C[C@H](Nc1ncc2cc(-c3ccccc3Cl)c(=O)n(-c3ccc(F)cc3)c2n1)C(C)(C)O [Cpd 7]
171.2 to 174 °C | 0.092 µM | Cn1c(=O)c(-c2ccccc2Cl)cc2cnc(N[C@H](CO)C(C)(C)C)nc21 [Cpd 18]
– | 0.048 µM | CC(C)(CO)Nc1ncc2cc(-c3ccccc3Cl)c(=O)n(N)c2n1 [Cpd 13]
– | 0.052 µM | Cn1c(=O)c(-c2ccccc2Cl)cc2cnc(NC(C)(C)CO)nc21 [Cpd 1]
> 300 °C | – | C[C@H](Nc1ncc2cc(-c3ccccc3Cl)c(=O)n(N)c2n1)C(C)(O)O.Cl
142.1 to 144.3 °C | – | CC(Nc1ncc2cc(-c3ccccc3Cl)c(=O)n(C)c2n1)C(C)S(C)(=O)=O.Cl (stereo not shown)
147 to 154 °C | 0.024 µM | Nn1c(=O)c(-c2ccccc2Cl)cc2cnc(NC3CCCC3)nc21 [Cpd 11]
178 to 181.5 °C | – | C[C@H](Nc1ncc2cc(-c3ccccc3Cl)c(=O)n(C)c2n1)C(C)(C)O (as salt: HCl) [Cpd 8]
213 to 220 °C | – | CN1CCC(CNc2ncc3cc(-c4ccccc4Cl)c(=O)[nH]c3n2)CC1.Cl
228.6 to 228.9 °C | – | Cn1c(=O)c(-c2ccccc2Cl)cc2cnc(NC(C)(C)CO)nc21 (as salt: HCl) [Cpd 1]
– | 0.124 µM | C[C@H](Nc1ncc2cc(-c3ccccc3Cl)c(=O)n(C3CC3)c2n1)C(C)(C)O [Cpd 12]
205.3 to 210.9 °C | 0.042 µM | Cl.Cn1c(=O)c(-c2ccccc2Cl)cc2cnc(NC3CCC3)nc21 [Cpd 10]
235.3 to 237.9 °C | 2.2 µM | Cl.O=C(O)CN1CCC(CNc2ncc3cc(-c4ccccc4Cl)c(=O)[nH]c3n2)CC1 [Cpd 3]
156.4 to 160.2 °C | – | COCCC(C)Nc1ncc2cc(-c3ccccc3Cl)c(=O)n(C)c2n1.Cl (stereo not shown)
142 to 149 °C | – | C[C@H](Nc1ncc2cc(-c3ccccc3Cl)c(=O)n(-c3ccc(F)cc3)c2n1)C(C)(C)O (as salt: HCl) [Cpd 7]
– | 0.031 µM | C[C@H](Nc1ncc2cc(-c3ccccc3Cl)c(=O)n(C)c2n1)C(C)(C)O [Cpd 8]
220 to 221.1 °C | – | COC(=O)CN1CCC(CNc2ncc3cc(-c4ccccc4Cl)c(=O)[nH]c3n2)CC1.Cl
